From patent publication US20150320783A1, “N-METHY[…] RELATED SUBSTANCES FOR USE IN TREATING / LESSENING THE OCCURRENCE OF HOT FLASHES RELATED TO MENOPAUSE” (DSM IP ASSETS B.V., priority 2013, published 2015)
Entries after “also recorded” stand apart in the source; their conditions may differ.

Columns and labels:
Assay type in all cases: in vivo, rat
[1] = test system: ovariectomized female rats; experiment: CGRP-induced hot flash response (skin temperature) in ovariectomized rats
From the text: (§1) The animals arrived at approximately 60 days of age, and were placed on specific diets throughout the study (to approximately 160 days of age). The diets were formulated and provided by Dyets Inc. (Bethlehem, Pa.) and are based on a modified AIN-93G diet. These diets were fed ad libitum. Two weeks after arrival, at approximately […] of age, the animals were ovariectomized, allowed to recover for three weeks, and then placed on defined diets. In the first study, these diets contained 0, 0.08, 0.48, 3.2, 18.5, 185, or 3700 μg/kg/day of NMS dihydrochloride (FIG. 2). In the second, follow-up study, the diets contained no NMS (control), NMS oxalate (18.5 or 55.5 μg/kg/d), or milled Zanthoxylum seed in quantities that supplied NMS-glucoside at equivalent doses (18.5 or 55.5 μg/kg/d; FIG. 8). The NMS and NMS-glucoside content was verified using liquid chromatography with mass spectrometric etection. Extraction methods were similar to those of Yanase et al., 2010.
(§2) All diets were fed for 2 weeks prior to the first behavioral assessment (open field). Positive control animals received a 5.0 mm subcutaneous silastic capsule implant packed with a crystalline 17β-estradiol and cholesterol mixture (25%, 0.058 inch inner diameter, 0.077 inch outer diameter; Dow Corning #508-006). Animals were then examined for locomotor activity (open field) and in two behavioral assays to assess mood (elevated plus maze and swim test) separated by two weeks in-between each assay. Two weeks after the final behavioral task (swim test), the animals were anesthetized and their physiological response to an experimentally-induced hot flash was tested. After the temperature monitoring was complete, tissue was harvested while the animals were still anesthetized.
Two weeks after arrival, each animal was anesthetized via isoflurane inhalation and the dorsal mid-lumbar area was shaved and swabbed with surgical scrub, iodine and alcohol. The animal was then placed on a warm heat pad covered by a sterile cloth/pad in ventral recumbency with tail towards surgeon. A 2-3 cm dorsal midline skin incision was made halfway between the caudal edge of the ribcage and the base of the tail. A single transverse incision of 5.5-10 mm long was made into the muscle wall on both the right and left sides approximately ⅓ of the distance between the spinal cord and the ventral midline. The ovary and the oviduct were exteriorized through the muscle wall. A hemostat was clamped around the uterine vasculature between the oviduct and uterus and the uterine vasculature was ligated with dissolvable suture. Each ovary and part of the oviduct was removed with single cuts through the oviducts near the ovary. The hemostat was removed, and the remaining tissue replaced into the peritoneal cavity. The ovary on the other side was removed in a similar manner. The muscle incision is not sutured. Sterile wound clips were used to close the skin incision. Animals were monitored daily for signs of infection or morbidity.
Animals were anesthetized with intraperitoneal co-injection of urethane (750 mg/kg) and α-chloralose (60 mg/kg). […] Thermistor probes (ADI Instruments, Colorado Springs, Colo.) were taped to the plantar surfaces of one hind foot. Forty minutes later, after anesthesia-induced hypothermia had stabilized, the basal skin temperature was recorded. Temperature monitoring then occurred at 5-second intervals throughout the remainder of the experiment. Calcitonin gene related peptide (CGRP; 10 μg/kg, i.v.) dissolved in saline was then injected via the tail vein. A maximum of eight animals were tested at the same time due to limitations on instrumental throughput. Cage mates were always tested together in order to avoid the stresses of single-housing and the potential stress hormone effects on body temperature. Therefore only four groups could be tested within any one given day.

[2] = test system: ovariectomized female rats; experiment: Behavioral measures of mood (open field, elevated plus maze, swim test)
From the text: as §2, with “After the temperature monitoring was complete, tissue was harvested while the animals were still anesthetized.” left out
Animals were tested in the open field to measure overall locomotor activity and basal anxiety state. […] Rats were placed in the middle of the chamber and behavior in the open field was recorded for thirty minutes with a digital camera and measured by software (AnyMaze, Stoelting Co., Inc.). The following parameters were analyzed: a) total distance traveled; b) time in center; c) center entries; and d) number of fecal boli excreted.
Animals were tested on the elevated plus maze to measure anxiety-related behavior. […] Each rat was placed in the central platform facing one of the open arms, and its behavior was recorded during a 5-min testing period with video capture software (AnyMaze). […]

[3] = Body weight of ovariectomized female rats; conditions: for body weight: FIG. 6A, dietary NMS vs control diet, estradiol implanted, throughout the experiment
From the text: as §1, §2

[4] = test system: ovariectomized female rats; experiment: Uterine weight (uterotrophic effect) in ovariectomized female rats; conditions: vs ovariectomized controls; for uterine weight: first study, FIG. 6D, after 80 days of supplementation; for uterine weight / uterine growth: follow-up study, FIG. 11A
From the text: as §1, §2

plasma estradiol = experiment: Circulating (plasma) estradiol levels in ovariectomized female rats; conditions: for plasma estradiol: first study, FIG. 5, dietary NMS supplementation, estradiol supplemented animals
From the text: as §1, §2

[5] = test system: ovariectomized female rats; experiment: Forced swim test (depressive-like behaviors); conditions: first study, FIG. 7A; estradiol implanted
Method: Each rat was examined in the swim test for depressive-like behaviors. The test was performed over two consecutive days since it is a measure of an adaptive response to a perceived inescapable situation. The first test establishes to the animal that it is an inescapable situation, and the second test measures the animal's degree of passive coping derived from an unwillingness to maintain effort in an inescapable situation. Typical antidepressants limit the amount of passive coping (immobility) and promote the amount of active coping (swimming/climbing). On day one (0800 h to 1300 h), animals were acclimated to the test by placing them in a plexiglass cylindrical container (45 cm×20 cm) filled with 30 cm of fresh water (25° C.) for fifteen minutes, after which they were toweled dried and returned to their home cage. On day two (24 hrs later) the test was performed for a total swim time of five minutes, after which the rats were toweled dried and returned to their home cage. Both trials were recorded by a digital video camera was secured to the ceiling above the cylinders and connected to a laptop. Total time spent swimming and immobile was measured real-time by behavioral software (Anymaze, Stoelting Co.), and scored post hoc by a blinded experimenter from captured video. […]

[6] = first study, representative data FIG. 3, 0.48 ug/kg/d NMS through diet vs untreated controls
[7] = first study, dietary NMS, dose not stated, estradiol subcutaneous, no dietary NMS (positive control)
[8] = first study, dietary NMS, dose not stated, estradiol subcutaneous, no dietary NMS (positive control), CGRP 10 μg/kg i.v.
[9] = follow-up study, FIG. 9, milled Zanthoxylum seed supplying NMS-glucoside 18.5 or 55.5 μg/kg/d, NMS oxalate 18.5 or 55.5 μg/kg/d, or estradiol, vs untreated controls

Compound | basal skin temperature ([1]; first study, FIG. 3 and 4, 18.5 ug/kg/d NMS through diet vs untreated controls) | CGRP response above calculated baseline (skin temperature) [1, 6] | basal skin temperature [1, 6] | CGRP response above calculated baseline (skin temperature) ([1]; first study, representative data FIG. 3, 18.5 ug/kg/d NMS through diet vs untreated controls) | basal (baseline) skin temperature [1, 7] | CGRP-induced hot flash response [1, 8] | CGRP-induced hot flash response [1, 9] | behavioral measures of mood ([2]; first study, FIG. 7, dietary NMS) | behavioral measures of mood / mood-related behaviors ([2]; follow-up study, FIG. 10) | body weight ([3]; first study) | weight change as a percentage of original weight ([3]; first study, FIG. 6B and C, throughout or at the end of the study) | uterine weight [4] | uterine weight / uterine growth [4] | plasma estradiol (plasma estradiol) | non-uterine estradiol secretion (plasma estradiol; results summary) | time immobile during the second session of the forced swim test [5] | body weight throughout the experiment ([3]; follow-up study, FIG. 11B, estradiol implanted vs all other groups)
CNCCc1c[nH]c2ccc(O)cc12 [NMS, N-methylserotonin] | lower basal temperatures; also recorded: decreased basal skin temperature | lower CGRP responses | lower basal temperatures | lower CGRP responses | reduced baseline skin temperature | blunted the CGRP-induced hot flash response | blunted the CGRP-induced hot flash response | did not alter behavioral measures of mood | did not alter behavioral measures of mood | did not alter body weight | not different between dietary treatments | did not alter uterine weight | did not alter uterine weight | increased plasma estradiol in a dose-dependent manner | tripled |  | 
CNCCc1c[nH]c2ccc(O[C@@H]3O[C@H](CO)[C@@H](O)[C@H](O)[C@H]3O)cc12 [NMS-glucoside, N-methylserotonin 5-O-β-glucoside] |  |  |  |  |  |  | blunted the CGRP-induced hot flash response |  |  |  |  |  |  |  |  |  | 
C[C@]12CC[C@@H]3c4ccc(O)cc4CC[C@H]3[C@@H]1CC[C@@H]2O [estradiol, 17β-estradiol, reference compound] |  |  |  |  | lowest basal temperatures | lowest responses to CGRP | blunted the CGRP-induced hot flash response |  |  | significantly lower body weight |  | significantly higher uterine weights | significantly higher uterine weights | highest levels of plasma estradiol |  | spent less time immobile | significantly lower body weight
